Data reported in paper PMC7217877, “N-AS-triggered SPMs are direct regulators of microglia in a model of Alzheimer’s disease” (Nature Communications, 2020).
Where “and” joins values, the source holds several entries; their conditions need not be identical. Equal entries are not always repeated.

Test system: APP/PS1 mice
Assay: open field test (Supplementary Fig 7f-i)
Format: in vivo, mouse
Design: open field test, sFig 7f (sheet untitled): unit not given here
Description: Transgenic mouse lines over-expressing the hAPP695swe (APP) and presenilin-1M146V (PS1) mutations were originated from GlaxoSmithKline (Harlow, UK)[32] and maintained as described previously. We purchased 5×FAD mice from Jackson Labs (Stock number. 34840-JAX). Because APP/PS1 and 5xFAD mice show sex differences in disease progression, we used only male mice. To examine possible therapeutic effect of N-AS and aspirin in APP/PS1 mice, the N-AS (30 mg kg^−1, Sigma-Aldrich, 01912) was injected daily s.c. for 8 weeks to 7-months-old APP/PS1 mice until the age of 9 months, and aspirin (2 mg kg^−1, Sigma-Aldrich, A5376)[33] was administrated orally to 7-months-old APP/PS1 mice for 8 weeks. […] Block randomization method was used to allocate the animals to experimental groups. To eliminate the bias, we were blinded in experimental progress such as data collection and data analysis. Mice were housed at temperature of 22 °C and a 12 h day/12 h night cycle with free access to tap water and food pellets. All protocols were approved by the Kyungpook National University Institutional Animal Care and Use Committee. […] Freezing was analyzed for 5 min. […] Overall activity in the box was measured, and the amount of time and distance traveled in the center arena was noted. […] The total number of transitions, latency to first enter the light chamber, distance traveled, and time spent in each chamber were recorded.

With `CCCCCCCCCCCCC/C=C/[C@@H](O)[C@H](CO)NC(C)=O` [N-AS, N-((2S,3R,E)-1,3-Dihydroxyoctadec-4-en-2-yl)acetamide] the “open field test, sFig 7f (sheet untitled)” value (APP/PS1 + N-AS, sums to 600 with sFig 7g) was 520.5 and 509.5 and 517.5 and 503.5 and 522.5 and 508 and 406.5 and 460.5 and the “locomotion and spontaneous activity, open field test” value (N-AS vs APP/PS1) was “improved locomotion and spontaneous activity”.
